Assay results taken from patent US20080312317A1 (Eisai R&D Management Co., Ltd., priority 2007, published 2008).

How the values were obtained:
Format in all cases: cell-based
[1] = test system: U937 human leukemia cell; test: Proliferation inhibitory effect, Cell Titer-Glo viability assay, U937; details: U-937, 72 h, 3 days culture with compound, luciferase viability readout, read-out: IC50, concentration for 50% inhibition of cell growth
Protocol: (§1) WiDr human colon cancer cells cultured in RPMI1640 medium containing 10% fetal bovine serum, penicillin (100 unit/ml) and streptomycin (100 μg/ml) (SIGMA product) were seeded into a 96-well plate by 2×10^3 cells/90 μl/well. After culturing the cells overnight in a CO2 incubator, 10 μl of the compound (P15) which is diluted in series in 3-folds was added in each well above, and cultured for another 3 days. Then, 50 μl of Cell Titer-Glo Luminescent Cell Viability Assay (Promega product) was added thereto, cells were shaken for 2 minutes and allowed to stand for 15 minutes to allow reaction. After completing the reaction, luciferase activity was measured using the luminometer. The thus obtained measurement value was given as an index for the number of living cells in each well.
(§2) The same experiment as above was carried out, except that WiDr human colon cancer cell was changed to U937 human leukemia cell, KP4 human pancreatic cancer cell, MIApaca2 human pancreatic cancer cell, MDA-MB231 human breast cancer cell, MDA-MB435 human breast cancer cell, DU145 human prostate cancer cell, PC9 human lung cancer cell and OVCAR3 human ovarian cancer, respectively. The concentration (IC50 values) of the compound (P15) required for 50% inhibition of each cancer cell was determined. […]

[2] = test system: OVCAR3 human ovarian cancer; test: Proliferation inhibitory effect, Cell Titer-Glo viability assay, OVCAR3; details: OVCAR-3, 72 h, 3 days culture with compound, luciferase viability readout, read-out: IC50, concentration for 50% inhibition of cell growth
Protocol: as §1, §2

[3] = test system: KP4 human pancreatic cancer cell; test: Proliferation inhibitory effect, Cell Titer-Glo viability assay, KP4; details: 72 h, 3 days culture with compound, luciferase viability readout, read-out: IC50, concentration for 50% inhibition of cell growth
Protocol: as §1, §2

[4] = test system: WiDr human colon cancer cell; test: Proliferation inhibitory effect, Cell Titer-Glo viability assay, WiDr; details: 72 h, 3 days culture with compound, luciferase viability readout, read-out: IC50, concentration for 50% inhibition of cell growth
Protocol: as §1
The same experiment as in Test Example 1 was carried out, except that the compound (P15) was changed to the compound (P16). The concentration (IC50 value) of the compound (P16) required for 50% inhibition of WiDr human colon cancer cell growth was determined.

[5] = test system: DU145 human prostate cancer cell; test: Proliferation inhibitory effect, Cell Titer-Glo viability assay, DU145; details: DU-145, 72 h, 3 days culture with compound, luciferase viability readout, read-out: IC50, concentration for 50% inhibition of cell growth
Protocol: as §1, §2

[6] = test system: MDA-MB231 human breast cancer cell; test: Proliferation inhibitory effect, Cell Titer-Glo viability assay, MDA-MB231; details: MDA-MB-231, 72 h, 3 days culture with compound, luciferase viability readout, read-out: IC50, concentration for 50% inhibition of cell growth
Protocol: as §1, §2

[7] = test system: PC9 human lung cancer cell; test: Proliferation inhibitory effect, Cell Titer-Glo viability assay, PC9; details: 72 h, 3 days culture with compound, luciferase viability readout, read-out: IC50, concentration for 50% inhibition of cell growth
Protocol: as §1, §2

[8] = test system: MIApaca2 human pancreatic cancer cell; test: Proliferation inhibitory effect, Cell Titer-Glo viability assay, MIApaca2; details: MIA PaCa-2, 72 h, 3 days culture with compound, luciferase viability readout, read-out: IC50, concentration for 50% inhibition of cell growth
Protocol: as §1, §2

[9] = test system: MDA-MB435 human breast cancer cell; test: Proliferation inhibitory effect, Cell Titer-Glo viability assay, MDA-MB435; details: MDA-MB-435, 72 h, 3 days culture with compound, luciferase viability readout, read-out: IC50, concentration for 50% inhibition of cell growth
Protocol: as §1, §2

SMILES: CC[C@H](O)[C@@H](C)[C@H]1O[C@@H]1C[C@H](C)/C=C/C=C(\C)[C@H]1NC(=O)CCCCCC(OC(C)=O)/C=C/[C@@H]1C (stereo partly drawn) [Compound P16]
- IC50 [1]: 140 nM
- IC50 [2]: 97 nM
- IC50 [3]: 300 nM
- IC50 [4]: 290 nM
- IC50 [5]: 510 nM
- IC50 [6]: 130 nM
- IC50 [7]: 240 nM
- IC50 [8]: 140 nM
- IC50 [9]: 380 nM

SMILES: CC[C@H](O)[C@@H](C)[C@H]1O[C@@H]1C[C@@](C)(O)/C=C/C=C(\C)[C@H]1NC(=O)CCCCCC(OC(C)=O)/C=C/[C@@H]1C (stereo partly drawn) [Compound P15, (2S,3S,4E)-2-((1E,3E,5R)-5-hydroxy-6-{(2R,3R)-3-[(1R,2S)-2-hydroxy-1-methylbutyl]oxiran-2-yl}-1,5-dimethylhexa-1,3-dien-1-yl)-3-methyl-12-oxoazacyclododec-4-en-6-yl acetate]
- IC50 [1]: 550 nM
- IC50 [2]: 430 nM
- IC50 [3]: 1300 nM
- IC50 [4]: 570 nM
- IC50 [5]: 2300 nM
- IC50 [6]: 470 nM
- IC50 [7]: 1400 nM
- IC50 [8]: 500 nM
- IC50 [9]: 1700 nM
